Data: patent publication US8283366B2, “Derivatives of pyridoxine for inhibiting HIV integrase” (Ambrilia Biopharma, Inc., priority 2010, dated 2012)
Where two headings read alike, the source gives them in different places.

How the values were obtained:
wild type NL-4.3 = test: Multi-cycle infection assay in MT-4 cells, MTT cytoprotection readout; format: cell-based, HIV-1; conditions: read-out: EC50 (nM) multi-cycle
Description: The antiviral efficacies of the integrase inhibitor compounds of the invention were evaluated based on EC50 measures obtained from two different in vitro HIV infection assay using cultured MT-4 cells: (1) a multi-cycle infection where cells were infected with wild type NL-4.3) and (2) a single-cycle infection where the cells were infected with a luciferase-bearing, envelope defective (env-) NL-4.3 virus pseudotyped with HIV-1 env (HXBc2.
The incubation period for the multi-cycle infection assay was 6 days. Cell viability (cytoprotection) and EC50 were determined using the colorimetric MTT assay (A. J. Japour et al, Antimicrobial Agents and Chemotherapy, 37, 1095-1101, 1993 and R. Pauwels et al. Journal of Virological Methods, 20, 309-321, 1988).

[1] = molecular target: T1, recombinant HIV-1 integrase (Human immunodeficiency virus type 1 group M subtype B, UniProt P04585); test: Integrase strand transfer assay; format: biochemical; conditions: compounds added after assembly, 10% DMSO, read-out: ST IC50
T1 construct: recombinant HIV-1 integrase
Description: IC50 was determined for the compounds of the inventions based on data generated in strand transfer assays. The IC50 is a measure of the ability of the compounds tested to inhibit the integration of 3′-processed oligonucleotides by recombinant HIV-1 integrase.
Strand transfer assays were performed essentially as described in Hazuda, D. J.; Felock, P.; Hastings, J. C.; Pramanik, B.; Wolfe, A. J. Virol. 1997, 71, 7005-7011). Donor DNA (1.5 pmol/well), biotinylated on the 5′ end of the strand processed by integrase, was immobilized onto streptavidin-coated microtiter plates. Recombinant integrase (250 ng/well) was assembled onto the immobilized donor oligonucleotide in reaction buffer (20 mM Hepes, pH 7.6, 5 mM B-mercaptoethanol, 50 ug/mL bovine serum albumin) containing 30 mM MnCl2. Excess enzyme was removed, and the complexes were washed extensively prior to the addition of the target DNA substrate. The target DNA (0.75 pmoles/well) substrate was labeled on each 3′ end with FITC. After strand transfer, the FITC-labeled products were detected using an anti-FITC antibody conjugated with alkaline phosphatase (Roche) and a chemi-luminescent substrate (Tropix CSPD with Sapphire II enhancer, Applied Biosystems). The assay was performed in a final concentration of 10% DMSO. To specifically evaluate inhibition of strand transfer, compounds were added after assembly, just prior to the addition of the target DNA.
The results of the integrase strand transfer assay are reported as IC50 values. IC50 values were determined using a sigmoidal dose-response equation. The formula used for calculating % inhibition was: % Inhibition=[1−(sample counts/average of positive control)]*100.

NL4.3 virus = test: Multi-cycle antiviral activity without and with human serum, p24 ELISA; conditions: for EC50: Human immunodeficiency virus 1, 144 h; for Fold-change with HS: EC50 with 40% HS versus 10% FBS alone
Description: The multi-cycle antiviral activity in the absence and presence of human serum was determined by p24 ELISA measurement after 6 days of NL4.3 virus infection.

[2] = Human immunodeficiency virus 1, MT4, 144 h, MT-4 cells, 6 days incubation, MTT
[3] = read-out: EC50 (uM) 10% FBS + 40% HS

Row | Compound | EC50 (wild type NL-4.3; [2]) | IC50 [1] | also measured
1 | Cc1c(C(O)c2ccc(F)cc2)cnc(C(=O)NO)c1O (stereo not drawn) [Example 8, 5-((4-fluorophenyl)(hydroxy)methyl)-N,3-dihydroxy-4-methylpicolinamide] | 8 nM |  | 
2 | O=C(NO)c1ncc(Cc2ccc(F)cc2)c(CO)c1O [Example 2, 5-(4-fluorobenzyl)-N,3-dihydroxy-4-(hydroxymethyl)picolinamide] | 10 nM | 35 nM | 
3 | O=C(O)C(O)=CC(=O)c1cc(OCc2ccccc2)cc(OCc2ccccc2)c1 [Example L-708906, reference compound] |  | 45 nM | EC50 (wild type NL-4.3; MT-4 cells, 6 days incubation, MTT): 5800 nM
4 | Cc1nnc(C(=O)NC(C)(C)c2nc(C(=O)NCc3ccc(F)cc3)c(O)c(=O)n2C)o1 [Raltegravir, reference compound] |  |  | EC50 (wild type NL-4.3; Human immunodeficiency virus 1, MT4, 144 h): 20 nM; EC50 (NL4.3 virus; read-out: EC50 (uM) 10% FBS): 0.047 µM; EC50 (NL4.3 virus; [3]): 0.064 µM
5 | Cc1c(Cc2ccc(F)cc2)cnc(C(=O)NO)c1O [Example 7, 5-(4-fluorobenzyl)-N,3-dihydroxy-4-methylpicolinamide] | 21 nM |  | 
6 | O=C(NO)c1ncc([C@H](O)c2ccc(F)c(Cl)c2)c(CO)c1O [Example 1, (R)-5-((3-Chloro-4-fluorophenyl)(hydroxy)methyl)-N,3-dihydroxy-4-(hydroxymethyl)picolinamide] | 4 nM | 56 nM | Fold-change with HS (NL4.3 virus): 1; EC50 (NL4.3 virus; read-out: EC50 (uM) 10% FBS): 0.006 µM; EC50 (NL4.3 virus; [3]): 0.006 µM
7 | CONC(=O)c1ncc(C(O)c2ccc(F)cc2)c(CO)c1O (stereo not drawn) [Example 6, 5-((4-fluorophenyl)(hydroxy)methyl)-3-hydroxy-4-(hydroxymethyl)-N-methoxypicolinamide] | 74 nM |  | 
8 | O=C(NO)c1ncc(C(O)c2ccc(F)cc2)c(CO)c1O (stereo not drawn) [Example 3, 5-((4-fluorophenyl)(hydroxy)methyl)-N,3-dihydroxy-4-(hydroxymethyl)picolinamide] | 2 nM |  | 
9 | CN(O)C(=O)c1ncc(C(O)c2ccc(F)cc2)c(CO)c1O (stereo not drawn) [Example 5, 5-((4-fluorophenyl)(hydroxy)methyl)-N,3-dihydroxy-4-(hydroxymethyl)-N-methylpicolinamide] | 421 nM |  | 
10 | Cc1c(/C(=N/O)c2ccc(F)cc2)cnc(C(=O)NO)c1O [Example 10, (E)-5-((4-fluorophenyl)(hydroxyimino)methyl)-N,3-dihydroxy-4-methylpicolinamide] | 49 nM |  | 
11 | Cc1c(C(=O)c2ccc(F)cc2)cnc(C(=O)NO)c1O [Example 9, 5-(4-fluorobenzoyl)-N,3-dihydroxy-4-methylpicolinamide] | 6680 nM |  | 
12 | O=C(NO)c1ncc([C@@H](O)c2ccc(F)c(Cl)c2)c(CO)c1O [Example 11, (S)-5-((3-Chloro-4-fluorophenyl)(hydroxy)methyl)-N,3-dihydroxy-4-(hydroxymethyl)picolinamide] | 2 nM | 23 nM | Fold-change with HS (NL4.3 virus): 1; EC50 (NL4.3 virus; read-out: EC50 (uM) 10% FBS): 0.001 µM; EC50 (NL4.3 virus; [3]): 0.001 µM
